The results in this text go back to patent US7626021B2, “Fused ring heterocycle kinase modulators” (SGX Pharmaceuticals, Inc., priority 2004, dated 2009).

The target of one experiment is T1, PDK1 kinase (Homo sapiens, UniProt O15530).
T1 construct: 6x Histidine tag (TEV-cleavable) (cleaved yes); made in house; host or cells: Sf9 insect cells
T1 sequence (O15530 1-556): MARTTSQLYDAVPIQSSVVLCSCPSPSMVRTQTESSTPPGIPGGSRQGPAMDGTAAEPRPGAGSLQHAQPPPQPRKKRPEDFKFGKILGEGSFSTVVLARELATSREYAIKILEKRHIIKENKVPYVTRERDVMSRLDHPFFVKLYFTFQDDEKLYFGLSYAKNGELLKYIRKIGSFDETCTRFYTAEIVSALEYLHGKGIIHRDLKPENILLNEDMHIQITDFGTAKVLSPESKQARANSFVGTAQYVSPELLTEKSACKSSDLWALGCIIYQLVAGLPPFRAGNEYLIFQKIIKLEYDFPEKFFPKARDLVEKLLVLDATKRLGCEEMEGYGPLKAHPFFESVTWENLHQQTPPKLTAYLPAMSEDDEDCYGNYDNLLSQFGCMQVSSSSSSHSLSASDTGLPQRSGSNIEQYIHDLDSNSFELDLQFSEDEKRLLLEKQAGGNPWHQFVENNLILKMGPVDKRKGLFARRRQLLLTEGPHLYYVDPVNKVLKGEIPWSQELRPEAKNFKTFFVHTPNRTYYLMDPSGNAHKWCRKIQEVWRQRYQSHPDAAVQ
The experiment can be described thus: PDK1 luminescence-based enzyme assay (Kinase-Glo). The format is biochemical. The source says:
(§1) In addition to the c-Abl PK/LDH coupled assay (above), homogeneous luminescence-based inhibitor screening assays were developed for c-Abl, MET, AurA, and PDK1 kinases (among others). Each of these assays made use of an ATP depletion assay (Kinase-Glo™, Promega Corporation, Madison, Wis.) to quantitate kinase activity. The Kinase-Glo™ format uses a thermostable luciferase to generate luminescent signal from ATP remaining in solution following the kinase reaction. The luminescent signal is inversely correlated with the amount of kinase activity.
PDK1 Luminescence-Based Enzyme Assay
Standard Assay Setup for 384-well format (20 μl kinase reaction, 40 μl detection reaction): 10 mM MgCl2; 0.01 mM PDKtide; 1 μl test compound (in DMSO); 0.1 μg/ml PDK1 kinase; 5 μM ATP; 1 mM MgCl2; 100 mM HEPES+0.01% Brij buffer. Positive controls contained DMSO with no test compound. Negative controls contained 10 μM staurosporine. The kinase reactions were initiated at time t=0 by the addition of ATP. Kinase reactions were incubated at 21° C. for 40 min, then 20 μl of Kinase-Glo™ reagent were added to each well to quench the kinase reaction and initiate the luminescence reaction. After a 20 min incubation at 21° C., the luminescence was detected in a plate-reading luminometer.
For orientation: Kinase-Glo reads ATP consumption through a luciferase reaction.

For a further experiment, the target named is T2, MET kinase (Homo sapiens, UniProt P08581).
T2 construct: Sf9 insect cell culture expressing the kinase domain of human Met; 6x Histidine tag (TEV-cleavable) (cleaved yes); made in house; host or cells: Sf9 insect cells
The experiment can be described thus: MET luminescence-based enzyme assay (Kinase-Glo). The format is biochemical.
From the text: as §1
MET Luminescence-based Enzyme Assay
Materials: Poly Glu-Tyr (4:1) substrate (Sigma Cat# P-0275), ATP (Sigma Cat#A-3377, FW=551), HEPES buffer, pH 7.5, Bovine serum albumin (BSA) (Roche 92423420), MgCl2, Staurosporine (Streptomyces sp. Sigma Cat#85660-1MG), white Costar 384-well flat-bottom plate (VWR Cat#29444-088). […]
Standard Assay Setup for 384-well format (20 μl kinase reaction, 40 μl detection reaction): 10 mM MgCl2; 0.3 mg/ml poly Glu-Tyr; 0.1% BSA; 1 μl test compound (in DMSO); 0.4 μg/ml MET kinase; 10 μM ATP; 100 mM HEPES buffer. […] Kinase reactions were incubated at 21° C. for 60 min, then 20 μl of Kinase-Glo™ reagent were added to each well to quench the kinase reaction and initiate the luminescence reaction. After a 20 min incubation at 21° C., the luminescence was detected in a plate-reading luminometer.

Like-named read-outs stand apart in the source and are kept apart here.

T2 sequence (P08581 1078-1345 limits assumed): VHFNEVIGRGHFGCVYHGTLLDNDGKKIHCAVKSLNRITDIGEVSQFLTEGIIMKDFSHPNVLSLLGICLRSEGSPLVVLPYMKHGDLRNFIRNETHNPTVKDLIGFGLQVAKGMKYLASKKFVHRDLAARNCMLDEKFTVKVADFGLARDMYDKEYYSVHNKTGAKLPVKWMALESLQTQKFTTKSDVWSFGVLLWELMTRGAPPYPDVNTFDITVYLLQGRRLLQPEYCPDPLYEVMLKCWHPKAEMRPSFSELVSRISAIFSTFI

Regarding `COc1ccccc1-c1n[nH]c2ncc(-c3ccc(C(=O)N4CCCCC4)cc3)cc12`, the IC50 (commonly the point on the concentration scale where inhibition reaches its midpoint) on PDK1 kinase was 1 to 10 µM.
On MET kinase, `CCN1CCN(C(=O)c2cccc(-c3cnc4[nH]nc(-c5cc(F)ccc5OC)c4c3)c2)CC1` registered a half-inhibitory concentration (IC50) of 1 to 10 µM.
`COc1ccccc1-c1n[nH]c2ncc(-c3ccc(C(=O)N4CCOCC4)cc3)cc12` displayed an IC50 against PDK1 kinase of 1 to 10 µM.
Still for that read-out and setting: next, `COc1cc(-c2cnc3[nH]nc(-c4ccccc4)c3c2)ccc1O`: 1 to 10 µM.
As to `COc1cc(-c2cnc3[nH]cc(-c4ccc(C)cc4)c3n2)ccc1O`, the IC50 at PDK1 kinase (read-out: PDK1 IC50) lay within 1 to 10 µM.
At PDK1 kinase, `COc1ccccc1-c1n[nH]c2ncc(-c3ccc(C(=O)N4CCCC4)cc3)cc12` registered an IC50 of 1 to 10 µM.
`COc1ccccc1-c1n[nH]c2ncc(-c3ccc(C(=O)N4CCN(C)CC4)cc3)cc12` yielded an IC50 against PDK1 kinase of 1 to 10 µM.
